One assay concerns HSV-2 333 TKnull. In words: microbe, parasite or virus in culture. As to conditions: Human alphaherpesvirus 2, Vero, 24 h.
A further assay deals with HSV-1 RE TKnull. Briefly: microbe, parasite or virus in culture. As to conditions: Human alphaherpesvirus 1, Vero, 24 h.
A further assay deals with clinical HSV-1 isolates. Briefly: Inhibition of clinically derived HSV-1 isolates in Vero cells, cell viability assay. The format is cell-based. As to conditions: US origin. The protocol: Four American isolates (HSV-1 Bethesda and HSV-1 RH; HSV-2 Bethesda and HSV-2 RH), 3 Asian isolates (HSV-2 JA-1, HSV-2 JA-2, and HSV-2 JA-3), and 4 isolates with ACV resistance (poly-mut, C7, C8, and IC) were investigated via a cell viability assay. […] Then, the mixtures were aliquoted into a 96-well plate seeded with Vero cells. After incubation for 48 hours at 37° C., the plate was washed with PBS once, and the viable cells were incubated with 1% Alamar blue for 1 hour.

[1] abbreviates: Human alphaherpesvirus 1, Vero, HSV-1 RH.

pIC50: −log10 of the molar value.

In general, pIC50 refers to −log10 of the IC50, conventionally taken in molar units. The low end stands for a large IC50, the high end for a small IC50. The term IC90 denotes the concentration at which the effect reaches the 90% level. A low value points to greater potency. With `Nc1nc2c(ncn2COCCO)c(=O)[nH]1` [ACV, acyclovir], the pIC50 was below 7.00 with HSV-2 333 TKnull; below 7.00 with HSV-1 RE TKnull; 5.44 in the assay on clinical HSV-1 isolates (Human alphaherpesvirus 1, Vero, HSV-1 Bethesda); 5.33 in the assay on clinical HSV-1 isolates (setting [1]). Moreover, the IC90 in the assay on clinical HSV-1 isolates (HSV-1 Bethesda) and in the assay with clinical HSV-1 isolates (setting [1]) was above 35.5 µM throughout.

For the origin of these results see patent US20240083981A1, “TREATMENT OF HERPES SIMPLEX VIRUS INFECTION” (priority 2022, published 2024).
